This is an account of results in US20160030472A1, “XENON-BASED ANESTHETIC GAS COMPOSITION USABLE DURING AN ENDARTERECTOMY INVOLVING THE CLAMPING OF THE CAROTID ARTERY” (Air Liquide Santé (International), priority 2013, published 2016).

The test system of this assay is patients scheduled for carotid surgery. The assay can be described thus: Randomized study of xenon versus sevoflurane for maintaining general anesthesia during carotid endarterectomy with clamping of the internal carotid artery. Format: in vivo, human being. Particulars: for average radial-carotid pressure gradient (PG) between systemic SAP and arterial pressure in the clamped carotid artery: during clamping of the internal carotid artery, group X (xenon 60%±5%, at least 30% oxygen) compared with group S (sevoflurane), 12 patients per group. The method, then:
The study was carried out in 24 patients scheduled for carotid surgery, comprising men and women. The choice of treatment of the patients is made randomly (randomization): • either using a routine anesthetic agent, namely sevoflurane: group S of 12 patients, • or by inhalation of xenon at 60%±5% in a mixture with at least 30% of oxygen: group X of 12 patients (% by volume). Anesthesia was induced identically in the 2 groups using intravenous products, namely propofol (target 1.5 μg/ml) and a morphine compound, remifentanil (target 4 ng/ml), double TCI (Target Controlled Infusion). The main assessment criterion is the pressure gradient (PG) between the systolic arterial pressure (SAP) measured at the level of a radial arterial catheter contralateral to the surgery and the arterial pressure in the clamped carotid artery. This pressure is obtained by means of a Fogarty catheter, which also enables clamping of the internal carotid artery by inflation of the balloon, connected to a pressure sensor. The continuous recording and the calculation of the PG are carried out live by a BiopAC system. This method makes it possible to obtain a measurement of the PG throughout the entire duration of the clamping of the internal carotid artery. The statistical analyses are carried out with R Project for Statistician Computing (www.r-project.org).

As for `FCOC(C(F)(F)F)C(F)(F)F` [sevoflurane, reference compound], the “consumption of vasopressor products for maintaining the systemic arterial pressure” value (group S compared with group X, p<0.001) is reported as “significantly higher”.

With `[Xe]` [xenon], the “average radial-carotid pressure gradient (PG) between systemic SAP and arterial pressure in the clamped carotid artery” value (p<0.001) is recorded as “reduce the pressure gradient (PG)”; the “average radial-carotid pressure gradient (PG) between systemic SAP and arterial pressure in the clamped carotid artery” value (p<0.001, listed as group X) was “significantly lower”. Also, the “hemodynamic parameters during maintenance of anesthesia” value (maintenance of anesthesia with xenon) was “stable”. In addition, the “systemic systolic arterial pressure values” (maintenance of anesthesia with xenon, compared with the usual inhaled or intravenous (IV) anesthetic agents) was “higher”.
